# In publication PMC11874007, “Switching Roles—Exploring Concentration-Dependent Agonistic versus Antagonistic Behavior of Integrin Ligands” (Journal of Medicinal Chemistry, 2025):
# Non-standard residues stand in square brackets, D forms with d. NMeV = CN[C@H](C(=O)O)C(C)C
# Legend:
# human αvβ6-integrin = target: T1, human αvβ6-integrin (Homo sapiens, UniProt P06756+P18564); details: previously published values; cited from earlier work
# T1 construct: purchased R&D 3817-AV-050
# human α5β1-integrin = target: T2, human α5β1-integrin (Homo sapiens, UniProt P05556+P08648); details: previously published values; cited from earlier work
# T2 construct: purchased R&D 3230-A5-050
# T2 sequence (P08648 42-995 limits assumed): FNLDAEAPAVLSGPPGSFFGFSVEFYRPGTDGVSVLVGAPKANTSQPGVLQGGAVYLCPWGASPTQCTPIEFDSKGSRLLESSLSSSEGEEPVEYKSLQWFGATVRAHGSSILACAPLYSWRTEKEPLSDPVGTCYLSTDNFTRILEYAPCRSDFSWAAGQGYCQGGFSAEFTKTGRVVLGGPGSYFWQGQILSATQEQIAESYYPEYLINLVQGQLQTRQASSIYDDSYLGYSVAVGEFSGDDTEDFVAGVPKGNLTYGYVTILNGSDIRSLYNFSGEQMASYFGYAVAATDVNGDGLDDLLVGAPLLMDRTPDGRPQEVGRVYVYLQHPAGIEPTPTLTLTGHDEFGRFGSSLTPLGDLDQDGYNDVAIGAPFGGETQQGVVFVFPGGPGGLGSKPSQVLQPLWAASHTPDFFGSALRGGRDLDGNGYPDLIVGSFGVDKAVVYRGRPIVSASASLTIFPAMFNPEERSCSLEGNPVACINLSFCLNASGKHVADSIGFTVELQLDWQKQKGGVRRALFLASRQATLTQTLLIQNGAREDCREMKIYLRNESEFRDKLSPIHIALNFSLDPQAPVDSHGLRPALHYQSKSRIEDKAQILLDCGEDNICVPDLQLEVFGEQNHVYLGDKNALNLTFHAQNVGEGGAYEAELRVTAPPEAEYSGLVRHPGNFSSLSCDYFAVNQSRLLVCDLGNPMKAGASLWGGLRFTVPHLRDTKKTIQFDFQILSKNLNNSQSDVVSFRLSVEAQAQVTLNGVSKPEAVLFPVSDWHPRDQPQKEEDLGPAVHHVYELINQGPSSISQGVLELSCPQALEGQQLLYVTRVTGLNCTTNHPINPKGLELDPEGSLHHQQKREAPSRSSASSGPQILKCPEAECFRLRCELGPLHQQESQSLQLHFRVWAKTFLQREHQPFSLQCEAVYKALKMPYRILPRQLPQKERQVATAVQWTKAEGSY
# T2 sequence (P05556 21-728 limits assumed): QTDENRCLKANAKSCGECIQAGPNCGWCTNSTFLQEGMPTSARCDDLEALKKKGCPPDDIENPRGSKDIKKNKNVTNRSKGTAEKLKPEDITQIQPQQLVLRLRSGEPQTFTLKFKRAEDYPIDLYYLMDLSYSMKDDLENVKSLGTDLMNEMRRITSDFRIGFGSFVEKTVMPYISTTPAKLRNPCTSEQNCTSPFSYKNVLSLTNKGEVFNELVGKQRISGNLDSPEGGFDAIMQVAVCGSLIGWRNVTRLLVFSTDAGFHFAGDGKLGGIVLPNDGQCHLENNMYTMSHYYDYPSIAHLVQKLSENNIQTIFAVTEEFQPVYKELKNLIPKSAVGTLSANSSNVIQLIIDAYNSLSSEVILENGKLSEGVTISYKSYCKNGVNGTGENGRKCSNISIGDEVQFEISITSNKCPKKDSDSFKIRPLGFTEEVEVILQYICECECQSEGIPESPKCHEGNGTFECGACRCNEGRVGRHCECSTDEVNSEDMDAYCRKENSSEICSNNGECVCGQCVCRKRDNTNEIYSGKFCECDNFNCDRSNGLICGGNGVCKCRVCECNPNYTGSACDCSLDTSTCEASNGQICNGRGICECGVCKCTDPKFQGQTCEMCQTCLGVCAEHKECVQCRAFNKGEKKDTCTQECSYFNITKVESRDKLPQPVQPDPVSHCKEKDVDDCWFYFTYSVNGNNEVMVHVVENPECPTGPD
# human αvβ3-integrin = target: T3, human αvβ3-integrin (Homo sapiens, UniProt P05106+P06756); details: previously published values; cited from earlier work
# T3 construct: purchased R&D 3050-AV-050
# T3 sequence (P06756 31-992 limits assumed): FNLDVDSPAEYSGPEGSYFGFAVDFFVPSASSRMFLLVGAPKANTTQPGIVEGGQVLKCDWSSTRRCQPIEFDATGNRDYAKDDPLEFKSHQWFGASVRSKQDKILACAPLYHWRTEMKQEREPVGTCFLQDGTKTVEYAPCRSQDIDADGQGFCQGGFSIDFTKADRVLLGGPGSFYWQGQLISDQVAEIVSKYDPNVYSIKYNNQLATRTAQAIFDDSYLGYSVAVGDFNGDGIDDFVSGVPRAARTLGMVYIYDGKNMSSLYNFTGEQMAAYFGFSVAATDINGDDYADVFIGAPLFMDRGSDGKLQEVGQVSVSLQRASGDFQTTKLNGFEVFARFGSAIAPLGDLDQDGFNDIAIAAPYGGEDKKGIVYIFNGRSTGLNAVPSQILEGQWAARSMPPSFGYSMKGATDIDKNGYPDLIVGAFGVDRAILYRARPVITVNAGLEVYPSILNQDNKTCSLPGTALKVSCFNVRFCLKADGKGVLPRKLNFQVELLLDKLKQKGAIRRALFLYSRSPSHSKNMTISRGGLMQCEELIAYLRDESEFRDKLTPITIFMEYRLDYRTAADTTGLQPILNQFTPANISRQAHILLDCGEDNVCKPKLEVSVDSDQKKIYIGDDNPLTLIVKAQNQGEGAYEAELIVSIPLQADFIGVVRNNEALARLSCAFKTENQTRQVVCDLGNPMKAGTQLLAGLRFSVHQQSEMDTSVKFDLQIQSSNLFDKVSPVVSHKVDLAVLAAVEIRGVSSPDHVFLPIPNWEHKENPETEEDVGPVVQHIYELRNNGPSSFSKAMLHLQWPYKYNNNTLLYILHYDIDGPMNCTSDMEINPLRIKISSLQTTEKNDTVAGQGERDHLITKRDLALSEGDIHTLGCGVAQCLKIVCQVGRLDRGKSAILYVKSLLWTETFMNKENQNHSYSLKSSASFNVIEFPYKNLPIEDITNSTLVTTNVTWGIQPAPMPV
# T3 sequence (P05106 27-718 limits assumed): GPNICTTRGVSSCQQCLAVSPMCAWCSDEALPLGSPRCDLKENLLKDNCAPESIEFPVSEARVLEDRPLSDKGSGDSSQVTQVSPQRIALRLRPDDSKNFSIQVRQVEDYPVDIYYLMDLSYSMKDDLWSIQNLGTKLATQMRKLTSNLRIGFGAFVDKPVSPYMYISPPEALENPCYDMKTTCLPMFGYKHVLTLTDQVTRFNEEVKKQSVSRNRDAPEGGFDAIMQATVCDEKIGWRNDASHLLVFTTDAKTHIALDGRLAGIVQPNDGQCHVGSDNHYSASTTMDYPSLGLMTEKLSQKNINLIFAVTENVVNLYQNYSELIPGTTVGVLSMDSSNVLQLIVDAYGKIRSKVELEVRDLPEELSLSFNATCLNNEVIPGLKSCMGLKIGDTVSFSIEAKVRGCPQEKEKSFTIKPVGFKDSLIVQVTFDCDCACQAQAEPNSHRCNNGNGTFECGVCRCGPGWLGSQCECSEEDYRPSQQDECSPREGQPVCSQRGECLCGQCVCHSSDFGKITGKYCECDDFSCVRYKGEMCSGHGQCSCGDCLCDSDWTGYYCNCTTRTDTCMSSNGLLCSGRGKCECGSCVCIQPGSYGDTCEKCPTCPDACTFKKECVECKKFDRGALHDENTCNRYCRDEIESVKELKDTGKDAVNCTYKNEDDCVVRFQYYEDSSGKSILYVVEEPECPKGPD
# [1] = test system: FAK, p-FAK, p44/42erk-1/2, p-p44/42erk-1/2 in αvβ3+ M21 cells; assay: Western blot of FAK and p44/42erk-1/2 expression and activation, M21 cells; assay type: cell-based
# Description: (§1) Since agonistic ligand performance requires integrin activation and signaling, by Western blot analysis, we studied whether the different ligands alter the expression levels and activation states of FAK and p44/42^(erk-1/2). For this, the respective target integrin-expressing tumor cell types were incubated with the corresponding subtype-selective ligand at a concentration of 1 μM for 24 h (Figure 8). […] Signal intensities of FAK and p44/42^(erk-1/2) expression and activation (p-FAK and p-p44/42^(erk-1/2)) on Western blots were evaluated by densitometry. Data are depicted as GAPDH-normalized fluorescence signal intensities as n-fold, by setting values obtained for the respective untreated cells to “1”. […] MAPK p44/42^(erk-1/2) expression was approximately 2.2-fold augmented, p44/42^(erk-1/2) by approximately 2.5-fold. It also raised activation of p-FAK and p-p44/42^(erk-1/2) by approximately 2.2-fold and 3.1-fold, respectively, in α5β1+ OV-MZ-6 cells. […] Additionally, it raised FAK (approximately 1.7-fold) and p-p44/42^(erk-1/2) (approximately 2.4-fold) in α5β1+ OV-MZ-6 cells.
# (§2) Figure 8 Effects of ligands on cellular expression and activation of integrin-related signaling molecules FAK and p44/42^(erk-1/2). […] Signal intensities for FAK and p-FAK, respectively, were evaluated by use of the Bio-Rad Imager Gel Doc XR+ and a ChemiDoc XRS+ Systems and the software Image Lab. Shown are typical representative Western blot images and the corresponding histograms depicting GAPDH-normalized signal intensities as n-fold by setting the values obtained for untreated cells to “1” (drawn as black line). For each cell line, cutouts of identical gels are depicted.
# (§3) In order to capture early and transient changes in signaling activation following ligand treatment, we next reduced the observation periods to 5, 30, or 60 min and assessed FAK expression and activation. […] Depicted are typical Western blot images and the corresponding densitometrical evaluations of GAPDH-normalized signal intensities as n-fold, by setting that of the respective untreated cell type to “1” (Figure 9). […]
# (§4) The kinases (p-)p44/42^(erk-1/2) and (p-)FAK were detected as previously published.[15],[8] Briefly, cells were grown for 18 h on six-well plates in DMEM (0.45 Mio cells/well). After medium exchange, fresh medium with L1–L5 (concentration: 1.0 μM, 2 mL/well) was added, and cells were incubated for another 24 h at 37 °C. In a second series, cells were incubated with L1–L5 (1 μM or 1 nM) for 5, 30, or 60 min. Thereafter, the cellular proteins were extracted and processed by Western blotting. Proteins were visualized using the Pierce ECL chemiluminescent substrate (Thermo Fisher Scientific). Band signal intensities for (p-)p44/42^(erk-1/2) and (p-)FAK were evaluated using the Bio-Rad Imager Gel Doc XR + and ChemiDoc XRS + Systems and the software Image Lab. Differences in protein loading and blotting efficiency were normalized by reprobing the membranes with a monoclonal antibody directed to GAPDH. Signal intensities for protein bands of interest were normalized to those recorded for GAPDH. Typical Western blot images are depicted together with histograms summarizing the mean values of normalized fluorescence signal intensities as n-fold, by setting those obtained for untreated cells to “1”.
# αvβ3+ M21 cells = assay: Wound scratch cell migration assay, M21 cells; assay type: cell-based
# Description: (§5) As a biological readout for integrin signaling, we analyzed ligand effects on cell adhesion and migration by wound scratch assays (Figure 10A,B). […] Microscopical images were taken directly after wounding the cell monolayers and then after 9, 24, 48, and 72 h, respectively.
# (§6) Figure 10 (A) Effect of integrin ligands on cancer cell migration. […] Microscopical measurements of wound gaps were taken directly after setting the wound scratch and then after 9, 24, 48, and 72 h, respectively. Wound scratch assays were repeated at least three times. The extent of wound gap closure [%]/cell coverage was calculated by a python script utilizing Canny’s Edge Detection algorithm as described under Materials and summarized in the corresponding histograms (see also Scheme S5 in the Supporting Information). (B) Adhesion of M21, OV-MZ-6, and HN cells in the presence of the respective integrin targeting ligand at low (1 nM) and high (1 μM) concentrations. […] Depicted are typical microscopical images of the respective cell monolayers.
# (§7) The assays were performed according to a modified protocol as previously published.[94] Cells were cultivated on fibronectin-coated 12-well cell culture plates until cell monolayers reached an approximately 80% confluency. Then, the wound scratch was set utilizing a 200 μL pipet tip. Subsequently, fresh culture medium was added in the absence or presence of L1–L5 (concentration: 1 μM or 1 nM), and microscopical images (Zeiss, Oberkochen, Germany) were taken at two identical positions of the wound gap directly after wounding and then at 9, 24, 48, or 72 h of further cell cultivation. Each wound scratch assay was repeated three times. A custom python script was implemented to analyze wound gap closure over time: after cropping the images, we used the OpenCV[95] implementation of Canny’s Edge Detection Algorithm[96] to ensure reliable measurements even with variable lighting conditions.[97] As a first step, a 5 × 5 Gaussian filter was applied to remove background noise. The smoothened images were then filtered by a Sobel kernel[98] and the magnitude and direction of the intensity gradient of the images calculated. Then, a non-maximum suppression algorithm was applied to identify relevant pixels that presumably contribute to edges. In a final step, threshold hysteresis was utilized to distinguish true edges from variations in intensity or the remaining background noise. The resulting images were then segmented and binarized by use of a grid filter and analyzed with respect to cell-covered area relative to the start image of each series.
# glioblastoma = details: phase II and III trials; cited from earlier work
# tumor angiogenesis = details: low dose; cited from earlier work
# M21 cells = assay: Cell adhesion in the presence of ligand, M21 cells; assay type: cell-based; details: 1 μM
# Description: as §6
# [2] = test system: FAK, p-FAK, p44/42erk-1/2, p-p44/42erk-1/2 in α5β1+ OV-MZ-6 cells; assay: Western blot of FAK and p44/42erk-1/2 expression and activation, OV-MZ-6 cells; assay type: cell-based; details: 1 μM, 5, 30 or 60 min
# Description: as §1, §2, §3, §4
# α5β1+ OV-MZ-6 cells = assay: Wound scratch cell migration assay, OV-MZ-6 cells; assay type: cell-based; details: OV-MZ-6 cells
# Description: as §5, §6, §7
# Scheme S5. Effect of integrin ligands on cancer cell migration (control cells to Fig. 10A in the main manuscript). a) Integrin αvβ3- OV-MZ-6 cells, α5β1- M21 cells, α5β1+ and αvβ3- and […]
# mages of wound gaps were taken directly after setting the wound scratch and then after […], respectively. Wound scratch assays were repeated at least 3 times. The extent of wound gap closure [%]/cell coverage was calculated by a python script utilizing Canny’s Edge Detection algorithm11 as described in the Experimental Section and summarized in the corresponding histograms.
# (1 picture or pasted object on this page, not shown here)
# T1 sequence (P06756 31-992 limits assumed): as the sequence (P06756 31-992 limits assumed) above
# T1 sequence (P18564 22-707 limits assumed): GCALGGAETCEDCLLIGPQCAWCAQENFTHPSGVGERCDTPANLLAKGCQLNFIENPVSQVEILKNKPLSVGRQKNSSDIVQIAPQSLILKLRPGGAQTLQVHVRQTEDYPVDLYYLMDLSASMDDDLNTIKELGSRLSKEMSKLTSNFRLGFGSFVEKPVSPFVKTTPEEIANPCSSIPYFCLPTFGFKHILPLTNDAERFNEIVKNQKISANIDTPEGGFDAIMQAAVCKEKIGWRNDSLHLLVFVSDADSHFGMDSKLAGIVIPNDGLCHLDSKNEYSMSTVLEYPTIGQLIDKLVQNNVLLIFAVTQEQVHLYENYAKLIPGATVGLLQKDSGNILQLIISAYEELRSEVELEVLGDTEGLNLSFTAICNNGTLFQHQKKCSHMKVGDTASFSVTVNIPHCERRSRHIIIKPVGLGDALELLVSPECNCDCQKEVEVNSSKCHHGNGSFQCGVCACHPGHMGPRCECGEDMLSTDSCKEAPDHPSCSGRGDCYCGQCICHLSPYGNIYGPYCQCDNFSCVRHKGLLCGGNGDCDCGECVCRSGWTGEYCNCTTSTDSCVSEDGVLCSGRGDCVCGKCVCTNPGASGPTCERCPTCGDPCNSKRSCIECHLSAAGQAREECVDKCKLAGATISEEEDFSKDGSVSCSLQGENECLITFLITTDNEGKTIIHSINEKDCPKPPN
Substance,IC50 (human αvβ6-integrin) [nM],IC50 (human α5β1-integrin) [nM],IC50 (human αvβ3-integrin) [nM],"FAK expression versus untreated cells ([1]; 1 nM, 5, 30 or 60 min)","FAK expression versus untreated cells ([1]; 1 μM, 5, 30 or 60 min)","Decrease of p-FAK levels within 60 min ([1]; both concentrations (1 nM, 1 μM))","p-FAK levels versus untreated cells ([1]; both concentrations (1 nM, 1 μM), up to 60 min)",Effect on wound gap closure / cell migration (αvβ3+ M21 cells; 1 nM),Effect on wound gap closure / cell migration (αvβ3+ M21 cells; 1 μM),"Reduction of wound gap closure (αvβ3+ M21 cells; 1 μM, after 9 h)","Cell coverage (wound gap closure) (αvβ3+ M21 cells; 1 μM, within 72 h)",Clinical efficacy (glioblastoma),Effect on tumor angiogenesis (tumor angiogenesis),Effect on cell adhesion / attachment (M21 cells),Effect on cell adhesion / attachment (M21 cells; listed as CIL/L2),FAK expression versus untreated cells [2],Effect on wound gap closure / cell migration (α5β1+ OV-MZ-6 cells; 1 nM),"Cell coverage (wound gap closure) (α5β1+ OV-MZ-6 cells; 1 μM, within 72 h)"
"RTDLDSLRT [linear peptide, internal standard for αvβ6, reference compound]",29.5 ± 4.5,> 1000,> 1000,,,,,,,,,,,,,,,
"c(RGDf(NMe)V) (cyclo(RGD[dF][NMeV])) [cilengitide (L2), reference compound]",,,,comparable to or slightly higher than in untreated,comparable to or slightly higher than in untreated,approximately threefold,almost comparable to that in untreated M21 cells,increased wound gap closure,markedly delaying wound gap closure,approximately threefold,approximately 40%,poor clinical efficacy,rather promoted than inhibited tumor angiogenesis,abrogating adhesion and spreading,performed as inhibitors of cell attachment,comparable to or slightly higher than in untreated,not effective,approximately 60%
